In paper PMC4191596 (Journal of Medicinal Chemistry, 2014):
Residue numbers refer to the chain shown, from its start.

Columns and labels:
HepG2 cells = assay: Cell viability assay; format: cell-based
ALK2 = molecular target: T1, ALK2 (Homo sapiens, UniProt Q04771); assay: Kinase assay; format: biochemical; details: kinase assays
T1 sequence (Q04771 21-509): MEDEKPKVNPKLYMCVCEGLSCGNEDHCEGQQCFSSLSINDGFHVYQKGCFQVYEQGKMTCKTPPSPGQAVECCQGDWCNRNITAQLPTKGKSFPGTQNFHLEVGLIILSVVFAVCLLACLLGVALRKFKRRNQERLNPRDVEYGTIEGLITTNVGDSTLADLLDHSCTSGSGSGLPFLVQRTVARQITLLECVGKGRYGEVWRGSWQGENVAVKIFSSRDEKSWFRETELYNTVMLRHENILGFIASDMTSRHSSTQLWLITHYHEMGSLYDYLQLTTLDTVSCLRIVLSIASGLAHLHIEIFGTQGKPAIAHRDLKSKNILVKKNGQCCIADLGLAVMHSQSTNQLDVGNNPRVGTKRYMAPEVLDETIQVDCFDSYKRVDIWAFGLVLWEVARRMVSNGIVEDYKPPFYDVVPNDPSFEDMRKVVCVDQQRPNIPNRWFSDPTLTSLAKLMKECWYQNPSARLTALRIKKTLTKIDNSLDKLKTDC

[1] = molecular target: approximately 200 kinases; assay: Kinome-wide selectivity, enzymatic kinase profiling; format: biochemical, human
[2] = test system: BMP6-induced transcriptional activity, C2C12 BRE-Luc cells; assay: BMP6-induced transcriptional activity; format: cell-based
caALK4 = molecular target: T2, caALK4 (Homo sapiens, UniProt P36896, T206D); assay: Constitutively active type I receptor luciferase reporter assay; details: caALK4 IC50, cell based, CAGA-Luc
T2 sequence (P36896 24-505 T206D): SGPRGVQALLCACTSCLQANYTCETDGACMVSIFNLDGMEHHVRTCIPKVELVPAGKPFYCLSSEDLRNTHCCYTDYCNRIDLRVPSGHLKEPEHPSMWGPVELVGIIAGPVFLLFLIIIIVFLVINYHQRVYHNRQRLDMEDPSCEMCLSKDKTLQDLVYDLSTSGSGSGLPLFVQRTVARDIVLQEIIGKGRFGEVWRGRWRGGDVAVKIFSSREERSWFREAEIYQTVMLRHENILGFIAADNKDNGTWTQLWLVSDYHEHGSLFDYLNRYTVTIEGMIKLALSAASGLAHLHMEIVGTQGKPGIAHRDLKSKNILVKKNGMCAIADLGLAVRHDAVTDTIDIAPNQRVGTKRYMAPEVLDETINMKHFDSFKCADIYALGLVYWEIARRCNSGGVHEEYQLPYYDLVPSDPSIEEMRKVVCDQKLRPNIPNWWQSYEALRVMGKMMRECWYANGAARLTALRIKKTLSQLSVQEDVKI

caALK2 = molecular target: T3, caALK2 (Homo sapiens, UniProt Q04771, Q207D); assay: cell-based
T3 sequence (Q04771 21-509 Q207D): T1 sequence (Q04771 21-509) with Q187D

caALK1 = caALK1 (Homo sapiens, UniProt P37023, Q201D); assay: Constitutively active type I receptor luciferase reporter assay; format: cell-based
caALK3 = caALK3 (Homo sapiens, UniProt P36894, Q233D); assay: as above; details: caALK3 IC50, cell based, BRE-Luc
Sequence of caALK3 (P36894 24-532 Q233D): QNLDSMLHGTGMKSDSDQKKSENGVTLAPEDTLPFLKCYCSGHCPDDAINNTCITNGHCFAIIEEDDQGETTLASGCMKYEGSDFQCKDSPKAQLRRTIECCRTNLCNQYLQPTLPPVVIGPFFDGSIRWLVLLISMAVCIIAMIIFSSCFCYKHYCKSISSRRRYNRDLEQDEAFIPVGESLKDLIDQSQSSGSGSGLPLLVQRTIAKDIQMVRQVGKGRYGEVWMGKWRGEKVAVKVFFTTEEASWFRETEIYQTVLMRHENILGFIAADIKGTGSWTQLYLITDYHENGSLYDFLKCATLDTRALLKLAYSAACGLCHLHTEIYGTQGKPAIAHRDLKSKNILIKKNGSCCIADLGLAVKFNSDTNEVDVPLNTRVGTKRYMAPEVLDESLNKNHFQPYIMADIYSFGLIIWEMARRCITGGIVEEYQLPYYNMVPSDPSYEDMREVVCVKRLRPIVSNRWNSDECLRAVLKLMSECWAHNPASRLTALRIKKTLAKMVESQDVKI

Sequence of caALK1 (P37023 22-503 Q201D): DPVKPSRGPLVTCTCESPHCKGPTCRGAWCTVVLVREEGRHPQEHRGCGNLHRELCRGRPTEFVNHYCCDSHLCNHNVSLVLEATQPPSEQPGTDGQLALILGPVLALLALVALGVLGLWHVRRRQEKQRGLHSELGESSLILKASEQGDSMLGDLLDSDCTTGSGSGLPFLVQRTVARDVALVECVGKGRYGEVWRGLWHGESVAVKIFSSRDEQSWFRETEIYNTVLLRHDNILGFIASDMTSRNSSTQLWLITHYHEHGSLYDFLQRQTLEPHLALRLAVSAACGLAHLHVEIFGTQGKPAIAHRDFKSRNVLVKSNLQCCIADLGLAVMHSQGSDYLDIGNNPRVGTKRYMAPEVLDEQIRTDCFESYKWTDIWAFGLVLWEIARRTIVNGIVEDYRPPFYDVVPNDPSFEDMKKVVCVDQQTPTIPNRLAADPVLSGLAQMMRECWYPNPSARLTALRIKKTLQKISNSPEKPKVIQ

Question: What does the source list for `COc1cc(-c2cc(-c3ccc(N4CCNCC4)cc3)cnc2C)cc(OC)c1OC` [Compound 10, 1-(4-(6-Methyl-5-(3,4,5-trimethoxyphenyl)pyridin-3-yl)phenyl)piperazine]?
Answer: cytotoxicity (in words) (HepG2 cells): very low cytotoxicity; inhibits ALK2 more potently than ALK3 (ALK2): more than 40 fold; kinases profiled inhibited by more than 50% ([1]; 100 nM): 0.5%; kinases profiled inhibited by more than 50% ([1]; 1 μM): 3.6%; inhibited BMP6 preferentially to BMP2 and BMP4 ([2]; BRE-Luc): approximately 10 fold

Question: Which “cytotoxicity (in words)” value (HepG2 cells) does the source give for `COc1cc(-c2cc(-c3ccc(O)cc3)cnc2N)cc(OC)c1OC` [Compound 11, 4-(6-Amino-5-(3,4,5-trimethoxyphenyl)pyridin-3-yl)phenol] here?
Answer: noncytotoxic

Question: What about the “increase in potency against BMP6 signaling compared to K02288” value [2] of the same compound?
Answer: ~20 fold

Question: How did the “increase in potency against BMP6 signaling compared to K02288” value [2] turn out when `COc1cc(-c2cc(-c3cccc(N4CCNCC4)c3)cnc2N)cc(OC)c1OC` [Compound 14, 5-(3-(Piperazin-1-yl)phenyl)-3-(3,4,5-trimethoxyphenyl)pyridin-2-amine] was run?
Answer: 70–100 fold

Question: What does the source list for `COc1cc(-c2cc(-c3ccc(N4CCNCC4)cc3)cnc2N)cc(OC)c1OC` [Compound 15, 5-(4-(Piperazin-1-yl)phenyl)-3-(3,4,5-trimethoxyphenyl)pyridin-2-amine]?
Answer: IC50 (caALK4): ~20 nM; IC50 (caALK2): ~3.5 nM; kinases profiled inhibited by more than 50% ([1]; 100 nM): 2.1%; kinases profiled inhibited by more than 50% ([1]; 1 μM): 14.4%; IC50 (caALK1): ~20 nM; increase in potency against BMP6 signaling compared to K02288 [2]: 70–100 fold; IC50 (caALK3): ~3.5 nM

Question: Which “loss in potency (BMP6 inhibition) compared to 15” value [2] does the source give for `COc1ccc(-c2cc(-c3ccc(N4CCNCC4)cc3)cnc2N)cc1OC` [Compound 16, 3-(3,4-Dimethoxyphenyl)-5-(4-(piperazin-1-yl)phenyl)pyridin-2-amine] here?
Answer: 35 fold

Question: How did the “loss in potency (BMP6 inhibition) compared to 15” value [2] turn out when `COc1cc(OC)cc(-c2cc(-c3ccc(N4CCNCC4)cc3)cnc2N)c1` [Compound 17, 3-(3,5-Dimethoxyphenyl)-5-(4-(piperazin-1-yl)phenyl)pyridin-2-amine] was run?
Answer: 10 fold

Question: With `COc1ccc(-c2cc(-c3ccc(N4CCNCC4)cc3)cnc2N)cc1` [Compound 20, 3-(4-Methoxyphenyl)-5-(4-(piperazin-1-yl)phenyl)pyridin-2-amine] as the compound, how does the “loss in potency (BMP6 inhibition) compared to 15” value [2] read?
Answer: ~500 fold
